Among the test systems are A549 NSCLC; HL-60(TB) leukemia; HOP-92 NSCLC; LOX IMVI melanoma; MALME-3M melanoma; SF-539 CNS; SK-MEL-2 melanoma; SNB-19 CNS; TK-10 renal; BT-549 breast.
Common to all, as to test: NCI anticancer screen, dose series, 48 h

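Five compound concentrations were applied to cells in 96-well plates for 48 hours; endpoints were derived by simple linear interpolation of the resulting dose-response curve. GI50 marks 50% less growth. TGI marks complete inhibition of growth.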 Some results are limits rather than exact numbers.

Drawing on PubChem BioAssay (NCI), this text covers TGI and GI50 for 13 compounds.

With `O=c1cc(-c2ccccc2)nc(/C=C(\O)c2ccncc2)n1-c1ccccc1`, the TGI with A549 NSCLC, in the assay with HL-60(TB) leukemia, with HOP-92 NSCLC, with LOX IMVI melanoma, with MALME-3M melanoma and with SF-539 CNS was > 100 µM throughout. In addition, the TGI with SK-MEL-2 melanoma, with SNB-19 CNS and with TK-10 renal was > 100 µM in each case.
Take `CCOc1ccccc1N1C(=O)C(=O)C(c2nc3ccccc3o2)/C(=N\N)C1=O` (stereo not given): the TGI in the assay on A549 NSCLC, in the assay on HL-60(TB) leukemia, with HOP-92 NSCLC, in the assay on LOX IMVI melanoma, in the assay on MALME-3M melanoma and in the assay on SF-539 CNS was > 100 µM each time. Besides, the TGI in the assay on SK-MEL-2 melanoma, with SNB-19 CNS and in the assay with TK-10 renal was > 100 µM throughout.
Consider `CCO/C=C1\N=C(C(Cl)c2ccccc2)OC1=O` (stereo not given), for which the TGI in the assay on A549 NSCLC, with HL-60(TB) leukemia, in the assay on HOP-92 NSCLC, with LOX IMVI melanoma, with MALME-3M melanoma and in the assay on SF-539 CNS was > 100 µM throughout. Besides, the TGI with SK-MEL-2 melanoma, in the assay on SNB-19 CNS and with TK-10 renal was > 100 µM each time.
Take `CCOc1ccc2nc(-c3cccc(OCC(=O)NC(C)C)c3)nc(Nc3ccc(-c4cn[nH]c4)cc3)c2c1`: the GI50 was 0.769 µM in the assay with A549 NSCLC; 0.661 µM with HL-60(TB) leukemia; 0.452 µM with HOP-92 NSCLC; 0.491 µM in the assay with LOX IMVI melanoma; 0.324 µM with MALME-3M melanoma; 1.25 µM in the assay on SF-539 CNS. For the same compound, the GI50 in the assay on SK-MEL-2 melanoma was 1.56 µM; in the assay on SNB-19 CNS, 0.598 µM; in the assay with TK-10 renal, 1.89 µM. Also, the TGI in the assay on A549 NSCLC was determined as 3.54 µM; in the assay on HL-60(TB) leukemia it was 3.41 µM; in the assay with HOP-92 NSCLC, 3.29 µM; in the assay with LOX IMVI melanoma, 2.33 µM; in the assay with MALME-3M melanoma, 1.79 µM; with SF-539 CNS, 2.67 µM. Besides, the TGI with SK-MEL-2 melanoma came out at 5.31 µM; in the assay with SNB-19 CNS, 3.76 µM; in the assay with TK-10 renal it was 5.2 µM.
Consider `O=c1nc(NC(c2ccccc2)(c2ccccc2)c2ccccc2)ccn1CCO`, for which the TGI with A549 NSCLC, with HL-60(TB) leukemia, with HOP-92 NSCLC, in the assay with LOX IMVI melanoma, in the assay with MALME-3M melanoma and with SF-539 CNS was > 100 µM each time. The TGI with SK-MEL-2 melanoma, in the assay with SNB-19 CNS and with TK-10 renal was > 100 µM throughout.
For the compound `COc1cc(C=O)c(-c2cc3c(cc2C2(C)OCCS2)OCO3)c(OC)c1OC` (stereo not given), the TGI with A549 NSCLC was > 97 µM; in the assay on HL-60(TB) leukemia, 82.1 µM; with HOP-92 NSCLC, 90.3 µM; in the assay on LOX IMVI melanoma it was 37.7 µM; in the assay with MALME-3M melanoma, 90.8 µM; in the assay with SF-539 CNS it was 17.4 µM. In addition, the results for the TGI with SK-MEL-2 melanoma, in the assay on SNB-19 CNS and in the assay with TK-10 renal were 47.7 µM, 168 µM and > 205 µM, respectively.
`CN1CCN(C(=O)c2c(NC(=O)NS(=O)(=O)c3ccccc3)sc3c2CCCCC3)CC1`: the GI50 with A549 NSCLC is 65.7 µM; in the assay with BT-549 breast, 26.3 µM; with HL-60(TB) leukemia, 48.2 µM; with HOP-92 NSCLC, 27.1 µM; in the assay with LOX IMVI melanoma, 30 µM; in the assay on SF-539 CNS, 29.7 µM. For the same compound, the GI50 in the assay on SK-MEL-2 melanoma is 60.3 µM. Besides, the TGI in the assay on A549 NSCLC was > 100 µM; in the assay with BT-549 breast it was 98.6 µM; with HL-60(TB) leukemia it was > 100 µM; in the assay with HOP-92 NSCLC, > 100 µM; in the assay on LOX IMVI melanoma, 84.9 µM; in the assay on SF-539 CNS, 69.9 µM. The TGI in the assay with SK-MEL-2 melanoma is > 100 µM.
Turning to `CC(C)(O)[C@@H]1CC[C@@]2(C)CCC[C@H](O)[C@H]2C1`, the TGI in the assay with A549 NSCLC, with HL-60(TB) leukemia, in the assay with HOP-92 NSCLC, with LOX IMVI melanoma, with MALME-3M melanoma and with SF-539 CNS was > 100 µM in each case. The TGI with SK-MEL-2 melanoma, in the assay on SNB-19 CNS and in the assay with TK-10 renal was > 100 µM in each case.
On to `O=C(NC12CC3CC(CC(C3)C1)C2)C(=O)c1c[nH]c2ccc([N+](=O)[O-])cc12`, for which the TGI with A549 NSCLC is > 41.1 µM; in the assay with HL-60(TB) leukemia, > 100 µM; with HOP-92 NSCLC, > 90.5 µM; with LOX IMVI melanoma it was > 52 µM; in the assay with MALME-3M melanoma, > 94.5 µM; in the assay on SF-539 CNS it was > 100 µM. The TGI in the assay with SK-MEL-2 melanoma is > 100 µM; in the assay with SNB-19 CNS it was > 30.3 µM; with TK-10 renal it was > 100 µM.
`COc1cc2cc3c4c(cc(OC)c(OC)c4c2cc1OC)CCN3C(=O)N(C)C`: the TGI with A549 NSCLC, with HL-60(TB) leukemia, in the assay on HOP-92 NSCLC, in the assay on LOX IMVI melanoma, in the assay on MALME-3M melanoma and in the assay on SF-539 CNS was > 100 µM in each case. Besides, the TGI in the assay on SK-MEL-2 melanoma was > 100 µM; in the assay with SNB-19 CNS, > 100 µM; in the assay on TK-10 renal it was > 10 µM.
For the compound `N#Cc1ccc(C2C3=C(CCCC3=O)OC3=C2C(=O)c2ccccc2C3=O)cc1` (stereo not given), the GI50 was 7.66 µM with A549 NSCLC; 1.56 µM in the assay on BT-549 breast; 0.259 µM in the assay with HL-60(TB) leukemia; 1.27 µM with HOP-92 NSCLC; 0.343 µM in the assay with LOX IMVI melanoma; 1.55 µM with MALME-3M melanoma. Moreover, the GI50 with SF-539 CNS was 1.69 µM; with SK-MEL-2 melanoma, 1.35 µM; with SNB-19 CNS, 4.35 µM. In addition, the TGI is 22.3 µM with A549 NSCLC; 2.92 µM in the assay with BT-549 breast; 1.27 µM in the assay with HL-60(TB) leukemia; 3.59 µM in the assay on HOP-92 NSCLC; 1.69 µM in the assay on LOX IMVI melanoma; 3.05 µM with MALME-3M melanoma. Moreover, the TGI in the assay on SF-539 CNS was 3.06 µM; in the assay on SK-MEL-2 melanoma, 3.33 µM; in the assay on SNB-19 CNS it was 16 µM.
Regarding `COC(=O)c1ccc(NC(=O)c2cc(OC)c(OC)c(OC)c2)cc1`, the TGI in the assay on A549 NSCLC is > 100 µM; in the assay with HL-60(TB) leukemia, 4.8 µM; in the assay on HOP-92 NSCLC it was > 100 µM; in the assay on LOX IMVI melanoma, > 100 µM; with MALME-3M melanoma, > 100 µM; with SF-539 CNS it was 5.5 µM. Further, the TGI in the assay with SK-MEL-2 melanoma, in the assay on SNB-19 CNS and in the assay on TK-10 renal was > 100 µM in each case.
Consider `CCC(=O)C(C)C(=O)C(=O)C(=O)OC` (stereo not given), for which the TGI in the assay with A549 NSCLC is > 100 µM; in the assay on HL-60(TB) leukemia it was > 64.4 µM; with HOP-92 NSCLC it was > 100 µM; in the assay with LOX IMVI melanoma, > 100 µM; in the assay with MALME-3M melanoma, > 100 µM; with SF-539 CNS, > 100 µM. For the same compound, the TGI in the assay on SK-MEL-2 melanoma, in the assay with SNB-19 CNS and in the assay with TK-10 renal was > 100 µM in each case.
